Assays:
Assay in all cases: relative viability (nuclei count vs DMSO), 5 days (fraction); higher = more cells survive
AZ628 + Crizotinib = compound: CC1=C(C=C(C=C1)NC(=O)C2=CC(=CC=C2)C(C)(C)C#N)NC3=CC4=C(C=C3)N=CN(C4=O)C [AZ628] + C[C@@H](Oc1cc(-c2cnn(C3CCNCC3)c2)cnc1N)c1c(Cl)ccc(F)c1Cl [Crizotinib] (partner 1 µM)
Summary of the method: (§1)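 Relative viability divides the nuclei count in treated wells by that in vehicle wells. Lung cancer cell lines were seeded in 1536-well plates, dosed by pin tool the next day, and fixed and stained after 5 days in one step with final 0.05% Triton X-100, 1% formaldehyde and 1 ug/ml Hoechst. Dosing was a single drug or a fixed anchor-drug dose plus five library-drug doses (not always all listed) in √10 steps, and values are medians of duplicate plates imaged at 4×.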

[1] = compound: C[As](C)SC[C@H](NC(=O)CC[C@H](N)C(=O)O)C(=O)NCC(=O)O [Darinaparsin] + Nc1nc2[nH]cc(CCc3ccc(C(=O)N[C@@H](CCC(=O)O)C(=O)O)cc3)c2c(=O)[nH]1 [Pemetrexed] (partner 0.2 µM)
Summary of the method: as §1

[2] = compound: C[As](C)SC[C@H](NC(=O)CC[C@H](N)C(=O)O)C(=O)NCC(=O)O [Darinaparsin] + C[C@@H](Oc1cc(-c2cnn(C3CCNCC3)c2)cnc1N)c1c(Cl)ccc(F)c1Cl [Crizotinib] (partner 1 µM)
Summary of the method: as §1

[3] = compound: C[As](C)SC[C@H](NC(=O)CC[C@H](N)C(=O)O)C(=O)NCC(=O)O [Darinaparsin] + CCNC(=O)c1noc(-c2cc(C(C)C)c(O)cc2O)c1-c1ccc(CN2CCOCC2)cc1 [Luminespib] (partner 0.01 µM)
Summary of the method: as §1

Cell Line	relative viability (AZ628 + Crizotinib; first compound 0.08 µM)	relative viability (AZ628 + Crizotinib; first compound 0.253 µM)	relative viability (AZ628 + Crizotinib; first compound 0.8 µM)	relative viability (AZ628 + Crizotinib; first compound 2.53 µM)	relative viability (AZ628 + Crizotinib; first compound 8 µM)	relative viability ([1]; first compound 0.08 µM)	relative viability ([1]; first compound 0.8 µM)	relative viability ([1]; first compound 8 µM)	relative viability ([2]; first compound 0.08 µM)	relative viability ([2]; first compound 0.8 µM)	relative viability ([2]; first compound 2.53 µM)	relative viability ([2]; first compound 8 µM)	relative viability ([3]; first compound 0.08 µM)	relative viability ([3]; first compound 0.8 µM)	relative viability ([3]; first compound 8 µM)	relative viability ([1]; first compound 2.53 µM)	relative viability ([3]; first compound 2.53 µM)
NCI-H1792	1.08	0.916	0.771	0.881	0.633	1.14	0.829	0.921	1.95	0.989	0.654	1.34	0.681	0.387	0.539	–	–
NCI-H1915	0.976	0.919	0.869	0.727	0.495	0.495	0.446	0.662	1.06	0.839	0.795	1.13	1.04	0.795	0.827	0.494	0.625
NCI-H1944	1.2	1.09	0.97	0.973	0.878	0.663	0.687	0.57	1.39	1.1	1.05	1.27	0.84	0.705	0.676	0.649	0.686
NCI-H1975	0.957	1.02	0.896	0.927	0.627	0.328	0.301	0.319	1.13	1.12	0.879	1.42	0.233	0.221	0.187	0.291	0.23
NCI-H1993	0.933	0.943	0.873	0.77	0.729	0.617	0.66	0.64	0.979	0.834	0.82	0.774	0.957	0.698	0.723	0.599	0.724
NCI-H2009	0.848	0.722	0.524	0.703	0.292	1.09	1.07	1.08	1.09	0.991	0.953	1.02	1.18	1.01	1.07	1	1.01
NCI-H2023	0.638	0.663	0.622	0.635	0.478	0.335	0.231	0.227	0.745	0.636	0.56	0.754	0.927	0.714	0.882	0.202	0.827
NCI-H2085	0.84	0.928	0.912	0.911	0.69	0.881	0.962	0.961	0.936	0.858	0.768	0.9	0.45	0.383	0.398	0.854	0.545
NCI-H2087	0.926	1.04	1.03	0.926	0.362	0.656	0.671	0.616	1.04	0.911	0.889	1.11	0.159	0.162	0.184	0.667	0.204
NCI-H2126	1.04	0.98	1.06	1.07	1.03	0.74	0.594	0.805	1.14	1.01	0.93	1.12	0.984	1.02	0.931	0.666	0.722
NCI-H2170	1.23	1.19	1.12	1.15	1.21	0.32	0.267	0.287	1.61	1.35	0.953	1.51	0.82	0.381	1.1	0.389	0.727
NCI-H2228	0.372	0.486	0.5	0.41	0.531	0.379	0.322	0.427	0.613	0.506	0.484	0.512	0.162	0.206	0.102	0.325	0.135
NCI-H2347	0.689	0.832	0.709	0.589	0.443	0.444	0.396	0.477	0.709	0.703	0.747	0.696	1.01	–	0.388	0.408	0.414
NCI-H2405	0.478	0.66	0.522	0.588	0.568	1.24	0.872	1.14	0.911	0.787	0.755	0.873	0.822	0.611	0.689	1.07	0.61
NCI-H3122	0.349	0.252	0.29	0.238	0.234	0.195	0.193	0.222	0.336	0.258	0.251	0.289	0.0869	0.0882	0.112	0.197	0.107
PC-3 [JPC-3]	0.941	1.04	1	1.06	0.922	1.43	1.02	1.04	0.976	0.948	0.973	0.849	0.807	0.721	0.87	1.04	0.698
PC-14	0.909	0.839	1.04	0.976	0.726	0.134	0.131	0.143	1.26	0.797	0.72	1.01	0.19	0.185	0.0932	0.128	0.157
RERF-LC-KJ	0.779	0.817	0.868	0.85	0.726	0.513	0.441	0.484	1.01	0.925	0.791	0.96	1.97	1.21	1.15	0.448	1.11

Source: the supplement of paper PMC10307832
